Results published in BindingDB's records for PubMed 1356154 (Dupont Pharmaceuticals, 1992).
pKi: −log10 of the molar value. Where “and” joins values, the source holds several entries; their conditions need not be identical. Equal entries are not always repeated.

Biological target: D(2) dopamine receptor (Rattus norvegicus, UniProt P61169)
Sequence (P61169 whole entry): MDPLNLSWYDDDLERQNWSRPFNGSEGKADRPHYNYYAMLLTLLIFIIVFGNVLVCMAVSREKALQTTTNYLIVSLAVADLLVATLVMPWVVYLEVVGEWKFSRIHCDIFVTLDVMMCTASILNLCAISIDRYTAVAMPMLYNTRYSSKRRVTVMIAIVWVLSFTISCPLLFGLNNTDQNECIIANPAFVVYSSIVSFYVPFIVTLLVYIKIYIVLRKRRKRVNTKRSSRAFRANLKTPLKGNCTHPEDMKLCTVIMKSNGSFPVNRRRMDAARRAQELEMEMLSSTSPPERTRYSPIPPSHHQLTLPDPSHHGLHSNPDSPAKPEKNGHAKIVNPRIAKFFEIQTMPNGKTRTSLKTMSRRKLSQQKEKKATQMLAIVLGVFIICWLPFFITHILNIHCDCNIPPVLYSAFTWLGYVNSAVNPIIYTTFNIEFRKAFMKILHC

Structure (SMILES) | pKi
CC(C)C[C@H]1C(=O)N2CCC[C@H]2[C@]2(O)O[C@](NC(=O)[C@@H]3C=C4c5cccc6[nH]c(Br)c(c56)C[C@H]4N(C)C3)(C(C)C)C(=O)N12 [Bromocriptine+ (GTP+)] | 7.08 and 7.27
O=C(O)c1ccccc1C(=O)Nc1cccc2ccccc12 [NPA,(+)] | 8.32
NC1CCc2cc(O)c(O)cc2C1 (centres undefined) | 8.21 and 7.62
CN(C)CCCSc1ccccc1NC(=O)/C=C/c1ccccc1 [CINANSERIN] | < 5.00
